Several values for one entry are separate records, joined by “and”; a condition that tells them apart may be missing. Equal entries are not always repeated. Where two headings read alike, the source gives them in different places. Marks after values point to notes of the source that are not given here.
Experiments:
[1] = tested on: rats; test: 28-day repeated dose study in rats with mass spectrometry-based plasma metabolite profiling (GC-MS, LC-MS, SPE-LC-MS); treatment ratios versus control
Experimental: (§1) A group of each 5 male and female rats was dosed once daily with the indicated compounds (see Table 9, below for compounds, applied doses and administration details) over 28 days.
(§2) Each dose group in the studies consisted of five rats per sex. Additional groups of each 5 male and female animals served as controls. Before starting the treatment period, animals, which were 62-64 days old when supplied, were acclimatized to the housing and environmental conditions for 7 days. All animals of the animal population were kept under the same constant temperature (20-24±3° C.) and the same constant humidity (30-70%). The animals of the animal population were fed ad libitum. The food to be used was essentially free of chemical or microbial contaminants. Drinking water was also offered ad libitum. […] The illumination period was 12 hours light followed by 12 hours darkness (12 hours light, from 6:00 to 18:00, and 12 hours darkness, from 18:00 to 6:00). […] The test substances (compounds in Table 9 were dosed and administered as described in the table above.
(§3) In the morning of day 7, 14, and 28, blood was taken from the retroorbital venous plexus from fasted anaesthetized animals. From each animal, 1 ml of blood was collected with EDTA as anticoagulant. The samples were centrifuged for generation of plasma. All plasma samples were covered with a N2 atmosphere and then stored at −80° C. until analysis.
(§4) For mass spectrometry-based metabolite profiling analyses plasma samples were extracted and a polar and a non-polar (lipid) fraction was obtained. For GC-MS analysis, the non-polar fraction was treated with methanol under acidic conditions to yield the fatty acid methyl esters. Both fractions were further derivatised with O-methyl-hydroxyamine hydrochloride and pyridine to convert Oxo-groups to O-methyloximes and subsequently with a silylating agent before analysis. In LC-MS analysis, both fractions were reconstituted in appropriate solvent mixtures. HPLC was performed by gradient elution on reversed phase separation columns.
(§5) Steroids and their metabolites were measured by online SPE-LC-MS (Solid phase extraction-LC-MS).
(§6) Following comprehensive analytical validation steps, the data for each analyte were normalized against data from pool samples. These samples were run in parallel through the whole process to account for process variability. The significance of treatment group values specific for sex, treatment duration and metabolite was determined by comparing means of the treated groups to the means of the respective untreated control groups using WELCH-test and quantified with treatment ratios versus control and p-values.

[2] = tested on: rats; details: rat, in vivo
Experimental: as §1, §2, §3, §4, §5, §6

[3] = plasma, male rats, day 28, high dose, Table 8a direct tubular effect
[4] = plasma, male rats, day 28, high dose, Table 8b direct tubular effect
[5] = plasma, female rats, day 28, high dose, Table 1a diuretic effect
[6] = plasma, female rats, day 28, high dose, Table 1b diuretic effect
[7] = plasma, male rats, day 7, high dose, Table 1c diuretic effect
[8] = plasma, male rats, day 7, high dose, Table 1d diuretic effect
[9] = plasma, male rats, day 14, high dose, Table 1c diuretic effect
[10] = plasma, male rats, day 14, high dose, Table 1d diuretic effect
[11] = plasma, male rats, day 28, high dose, Table 1c diuretic effect
[12] = plasma, male rats, day 28, high dose, Table 1d diuretic effect

## Oc1ccc(O)cc1 [Hydroquinone]
[1]; [3]
  Glycerol-3-phosphate, polar fraction, treatment ratio versus control: 1.64 *
  Isoleucine, treatment ratio versus control: 1.2 *
  TAG No 02, treatment ratio versus control: 1.91 *
  Threonine, treatment ratio versus control: 1.03
[1]; [4]
  14-Methylhexadecanoic acid, treatment ratio versus control: 0.81
  16-Methylheptadecanoic acid, treatment ratio versus control: 0.76
  18-Hydroxy-11-deoxycorticosterone, treatment ratio versus control: 0.23 *
  Citrate, treatment ratio versus control: 0.82 *
  DAG (C18:1, C18:2), treatment ratio versus control: 0.43 *
  Elaidic acid (C18:trans[9]1), treatment ratio versus control: 0.84
  Isopalmitic acid (C16:0), treatment ratio versus control: 0.62
  Ketoleucine, treatment ratio versus control: 0.75 *
  Linolenic acid (C18:cis[9,12,15]3), treatment ratio versus control: 0.56 *
  Lysophosphatidylcholine (C18:0), treatment ratio versus control: 0.99 *
  Oleic acid (C18:cis[9]1), treatment ratio versus control: 0.75 *
  Palmitoleic acid (C16:cis[9]1), treatment ratio versus control: 0.76 *
  TAG (C16:0, C16:1), treatment ratio versus control: 0.4 *
  trans-4-Hydroxyproline, treatment ratio versus control: 0.87 *
[2]
  Leucine, treatment ratio versus control: 1.23 *
  Lysophosphatidylethanolamine (C22:0), treatment ratio versus control: 1.26 *
  Ornithine, treatment ratio versus control: 1.24 *

## Cn1c(=O)c2c(ncn2C)n(C)c1=O [Caffeine]
[1]; rat, in vivo
  18-Hydroxy-11-deoxycorticosterone, treatment ratio versus control: 0.38 *
  Choline plasmalogen No 03, treatment ratio versus control: 1.55 * and 1.56 *
  Creatinine, treatment ratio versus control: 0.84 *
  Glutamate, treatment ratio versus control: 0.55 * and 0.65 * and 0.7 *
  Glycine, treatment ratio versus control: 1.5 *
  Hippuric acid, treatment ratio versus control: 0.38 *
  Lysophosphatidylcholine (C20:4), treatment ratio versus control: 0.85 * and 0.87 * and 0.89 *
  Malate, treatment ratio versus control: 0.61 * and 0.55 * and 0.54 *
  Proline, treatment ratio versus control: 1.23
  Sphingomyelin (d18:2, C16:0), treatment ratio versus control: 2.34*
  Threonine, treatment ratio versus control: 1.2 * and 1.59 *
[2]
  Choline plasmalogen No 03, treatment ratio versus control: 1.25 *
  Histidine, treatment ratio versus control: 1.29 *
  Pantothenic acid, treatment ratio versus control: 1.23 *
  Threonic acid, treatment ratio versus control: 1.46 *
  Threonine, treatment ratio versus control: 1.58 *
  Valine, treatment ratio versus control: 1.15 *
  trans-4-Hydroxyproline, treatment ratio versus control: 1.23 *

## Cn1c(=O)c2[nH]cnc2n(C)c1=O [Theophylline]
[1]; [5]
  Pantothenic acid, treatment ratio versus control: 1.72 *
  Proline, treatment ratio versus control: 1.57
  Threonic acid, treatment ratio versus control: 1.14
  trans-4-Hydroxyproline, treatment ratio versus control: 1.91 *
[1]; [6]
  18-Hydroxy-11-deoxycorticosterone, treatment ratio versus control: 0.5 *
  Creatinine, treatment ratio versus control: 0.8 *
  Hippuric acid, treatment ratio versus control: 0.28 *
[1]; [7]
  Ceramide (d18:1, C24:0), treatment ratio versus control: 0.92^
  Ceramide (d18:1, C24:1), treatment ratio versus control: 0.75^
[1]; [8]
  Glutamate, treatment ratio versus control: 0.64 *
  Lysophosphatidylcholine (C20:4), treatment ratio versus control: 0.71 *
  Malate, treatment ratio versus control: 0.76 *
[1]; [9]
  Ceramide (d18:1, C24:0), treatment ratio versus control: 1.56 *
  Ceramide (d18:1, C24:1), treatment ratio versus control: 1.94 *
[1]; [10]
  Lysophosphatidylcholine (C20:4), treatment ratio versus control: 0.87 *
  Malate, treatment ratio versus control: 0.9
[1]; [11]
  Ceramide (d18:1, C24:0), treatment ratio versus control: 0.95
  Ceramide (d18:1, C24:1), treatment ratio versus control: 1.17
  Choline plasmalogen No 02, treatment ratio versus control: 1
  Choline plasmalogen No 03, treatment ratio versus control: 1.03
[1]; [12]
  Glutamate, treatment ratio versus control: 0.74 *
  Lysophosphatidylcholine (C20:4), treatment ratio versus control: 0.81 *
  Malate, treatment ratio versus control: 0.72 *
[2]
  Glutamate, treatment ratio versus control: 1.04^
  Glycine, treatment ratio versus control: 1.32 *
  Histidine, treatment ratio versus control: 1.25 *
  Valine, treatment ratio versus control: 1.29 *

From patent US20150011423A1, “MEANS AND METHODS FOR ASSESSING KIDNEY TOXICITY” (BASF SE, priority 2011, published 2015)
